Assay results published in patent US11629359B2, “Plasma membrane intrinsic aquaporin for absorbing and transporting neonicotinoid insecticides, and coding gene and use therefor” (JIANGSU ACADEMY OF ARGRICULTURAL SCIENCES, priority 2020, dated 2023).

Key:
Chinese cabbage plants = conditions: 2 mg/L in Hoagland nutrient solution, mercuric chloride and glycerol of different concentrations, 48 h
[1] = system: Saccharomyces cerevisiae INVSc1 (pYES2); assay: Thiamethoxam content of control yeast strain; format: cell-based; conditions: 30° C., 6 h
Source text: (§1) The BraPIP2;1 gene cloned in Example 1 was constructed into the Saccharomyces cerevisiae overexpression vector pYES2 (purchased from Clotech) referring to (He Lin, Jiang Lili, Wang Yucheng, Analysis of the stress tolerance of Tamarix thioredoxin peroxidase (ThPrx1) gene transformed into yeast, Journal of Northeast Forestry University, 2011, Vol. 39. No. 4, 101-104), and the constructed recombinant plasmid was named pYES2-BraPIP2;1. The pYES2-BraPIP2;1 and an empty vector pYES2 were transformed into Saccharomyces cerevisiae INVSc1 by lithium acetate precipitation. The recombinant yeasts were named INVSc1 (pYES2-BraPIP2;1) and INVSc1 (pYES2), respectively.
(§2) Induction of recombinant strains: Single colonies of the control yeast INvsc1 (pYES2) and the recombinant yeast INvsc1 (pYES2-BraPIP2;1) were picked, inoculated in an SC-U liquid medium (with glucose of a final concentration of 2%) respectively, and incubated at 30° C. for 24 h on a shaker. The OD600 value is measured, and the amount of bacterial solution required is calculated such that the OD600 of bacteria in 10 ml of induction medium (SC-U+2% galactose) is 0.4. Induce expression was carried out at 30° C. for 24 h. The OD600 value was measured again, and the amount of bacterial solution required was calculated. […]

[2] = system: Saccharomyces cerevisiae INVSc1 (pYES2-BraPIP2;1); assay: Growth of recombinant yeast strains under thiamethoxam stress; format: cell-based; conditions: thiamethoxam 10-1600 mg/L, stress at 30° C. for 72 h
Source text: as §1, §2

[3] = system: BraPIP2;1 overexpression Arabidopsis thaliana; assay: Main root length of BraPIP2;1 transgenic Arabidopsis thaliana under thiamethoxam; format: in vivo; conditions: 1/2MS media with 10 and 50 mg/L thiamethoxam, 20 days
Source text: (§3) The BraPIP2;1 gene cloned in Example 1 was constructed into the plant binary overexpression vector pCAMBIA2301 (purchased from Clotech). By the Agrobacterium tumefaciens-mediated method (Valvekens, D., van Montagu, M., and Lijsebettens, M. V. (1988). Agrobacterium tumefaciens-mediated transformation of Arabidopsis thaliana root explants by using kanamycin selection. Proc. Natl. Acad. Sci. USA 85, 5536-5540.), the inflorescence of wild-type Arabidopsis thaliana Col-0 (purchased from ATCC, USA) was infected with the constructed overexpression vector. Through screening (resistance pure line seedlings were screened on a 1/2MS plate containing 50 μg/mL kanamycin), BraPIP2;1 overexpression Arabidopsis thaliana pure line materials BraPIP2;1#3 and BraPIP2;1#5 were identified and obtained.
The pure line seeds of the BraPIP2;1#3 and BraPIP2;1#5 obtained in the previous transgenic experiment and a wild-type Col-0 material (WT) were germinated on a 1/2MS medium respectively, and then transferred to 1/2MS media (Qingdao Hopebio Co., Ltd., Item No. HB8469-12, PH=5.6) containing 10 and 50 mg/L thiamethoxam respectively. After 20 days, the growth of the seedlings was observed and the main root length was measured.

[4] = system: BraPIP2;1 overexpression Arabidopsis thaliana; assay: Thiamethoxam content of BraPIP2;1 transgenic Arabidopsis thaliana plants; format: in vivo; conditions: soil containing 10 mg/L thiamethoxam, 20 days
Source text: as §3
In addition, germinated seedlings of the same size were transplanted into soil containing 10 mg/L thiamethoxam, and after 20 days of culture, the root and aboveground samples of the transgenic Arabidopsis thaliana and the control were harvested respectively, washed with deionized water, and weighed.

[5] = system: Saccharomyces cerevisiae INVSc1 (pYES2-BraPIP2;1); assay: Thiamethoxam content of recombinant yeast strain; format: cell-based; conditions: 30° C., 6 h
Source text: as §1, §2

BraPIP2;1 = assay: Response of BraPIP2;1 gene expression to thiamethoxam (quantitative RT-PCR); format: in vivo, Chinese cabbage; conditions: 10 mg/L thiamethoxam, 6 hours and 24 hours, p<0.001
Experimental: Seedlings of Chinese cabbage with the same growth condition were put in a Hoagland's nutrient solution containing 10 mg/L thiamethoxam (the Hoagland's nutrient solution was purchased from Beijing Coolaber Technology Co., Ltd.), and treated in the Hoagland's nutrient solution for 6 and 24 hours (treatment group).
At the same time, a Hoagland's nutrient solution without thiamethoxam was used as the control group.
Treated root and aboveground tissue RNA of two groups was extracted respectively, the 1st strand cDNA was obtained by reverse transcription as a template, specific expression primers were designed based on the cDNA sequence of BraPIP2;1, the Chinese cabbage Tublin was used as an internal reference, and the expression of the gene transcription level was detected by quantitative RT-PCR.
The quantification instrument is 7500 Real Time PCR System (Applied Biosystem), and a qPCRT system was configured according to the instructions of a kit 2×TSINGKE Master qPCR Mix (Tsingke Biotechnology Co., Ltd.). The PCR program is: pre-denaturation at 95° C. for 10 min, at 95° C. for 15s, and at 60° C. for 20 s, for 40 cycles.

Row | Compound | content of the compound in the plants after water channel inhibitors were added (Chinese cabbage plants) | thiamethoxam content of the control strain ([1]; 10 mg/L thiamethoxam) [ng/OD] | thiamethoxam content of the control strain ([1]; 100 mg/L thiamethoxam) [ng/OD] | growth of transgenic strain (pYES2-BraPIP2;1) versus wild strain (pYES2) with thiamethoxam [2] | main root length of the transgenic strain versus wild type [3] | thiamethoxam content of the roots and aboveground parts of the transgenic plant versus wild plant [4] | thiamethoxam content of the recombinant strain ([5]; 10 mg/L thiamethoxam) [ng/OD] | thiamethoxam content of the recombinant strain ([5]; 100 mg/L thiamethoxam) [ng/OD] | expression abundance of BraPIP2;1 in the roots and aboveground parts compared with the control (BraPIP2;1)
1 | CN1CCCC1c1cccnc1 (stereo not drawn) [nicotine] | did not change significantly |  |  |  |  |  |  |  | 
2 | CN1COCN(Cc2cnc(Cl)s2)/C1=N\[N+](=O)[O-] [thiamethoxam] |  | 0.0038 | 0.011 | grows significantly weaker than the wild strain | shorter than that of the wild type | higher than that of the wild plant | 0.0071 | 0.028 | significantly increased
